Laboratory results reported in patent publication US8207188B2, “Treatment of diseases modulated by a H4 receptor agonist” (priority 2006, dated 2012).
“Also recorded” adds a separate entry of the source.

Experiments:
c-kit+ BM cells = test: Cell cycle status of c-kit+ BM cells with pertussis toxin; assay type: cell-based, murine; conditions: 10 μM, 2 h
Experimental: Progenitor-enriched murine c-kit^+ BM or cord blood-derived CD34^+ cells were prepared by positive magnetic selection, suspended at a final concentration of 10^5 per ml in serum-free StemSpan medium (StemCell Technologies) and cultured up to 3 days in the presence of 10 ng of IL-3, 10 ng of IL-6 and 50 ng of SCF (Stem Cell Factor) per ml, with or without Clobenpropit (10^−5 M), Tritoqualine or both.
Magnetically sorted c-kit^+ BM cells were incubated for 2 h in StemSpan medium with growth factor cocktail alone or in the presence of 10^−5 M Clobenpropit, Tritoqualine or enantiomers. The cell cycle status was then assessed using Vybrant DyeCycle Violet (VDV) Stain (Invitrogen), according to the manufacturer's instructions.
The effect of Bordetella pertussis toxin (PTX; 100 ng/ml), an inhibitor of Gi/o coupling to the H4R, on the cell cycle arrest promoted by receptor activation was evaluated in the same conditions. After incubation, cells were analyzed using FlowJo software.

[1] = target: T1, Serotonin Transporter (SERT) (Mus musculus, UniProt Q60857); test: Serotonin uptake by bone marrow cells; assay type: cell-based, murine
T1 construct: from tissue; host or cells: total bone marrow cells

[2] = system: Mouse C57B1/6 Haematopoietic stem cells; test: G0/G1 cell cycle of sorted haematopoietic stem cells, 2 h incubation (Example 17); assay type: cell-based; conditions: 2 hours incubation with growth factors
Experimental: Mouse C57B1/6 Haematopoietic stem cells were enriched with bone marrow cells by magnetic sorting. Only cells expressing surface tyrosine kinase were sorted. Cells were incubated for 2 hours with growth factors (IL-3 10 ng/ml, IL-6 10 ng/ml, SCF 50 ng/ml) and TRQ and its enantiomers, E1 and E2.
After 2 hours of incubation, cells were washed and incubated with […] for 30 minutes read by FACS scan.

[3] = system: Mouse medullary cells C57B1/6 expressing H4R; test: Percentage of cells at G0/G1 phase, TRQ racemate and enantiomers with and without CB (Example 21); assay type: cell-based
Experimental: This experiment was conducted at two concentrations for all TRQ molecules (10 μM and 1 μM) in the presence and absence of CB (10 μM).
Using the assay described in Example 15, above, the effect of TRQ or CB on cells expressing H4R was tested. Mouse medullary cells C57B1/6 expressing H4R (50,000 cells/Petri dish) were incubated in a semi-solid media with haematopoietic growth factors such as IL-3 (10 ng/ml) for 7 days with a TRQ (racemic mixture of RR and SS isomers at 1 μM and 10 μM concentration); purified TRQ isomer E1 (10 μM and 1 μM concentration); purified TRQ isomer E2 (10 μM and 1 μM concentration) and CB (10 μM concentration). […] Similar results were shown with the purified TRQ isomers. In each experiment cells were incubated in the presence of growth factors (GF, FIG. 15).

[4] = target: T2, Organic Cation Transporter-3 (OCT-3) (Mus musculus, UniProt Q9WTW5); test: Histamine uptake by bone marrow cells; assay type: cell-based, murine
T2 construct: from tissue; host or cells: total bone marrow cells
T2 sequence (Q9WTW5 1-551): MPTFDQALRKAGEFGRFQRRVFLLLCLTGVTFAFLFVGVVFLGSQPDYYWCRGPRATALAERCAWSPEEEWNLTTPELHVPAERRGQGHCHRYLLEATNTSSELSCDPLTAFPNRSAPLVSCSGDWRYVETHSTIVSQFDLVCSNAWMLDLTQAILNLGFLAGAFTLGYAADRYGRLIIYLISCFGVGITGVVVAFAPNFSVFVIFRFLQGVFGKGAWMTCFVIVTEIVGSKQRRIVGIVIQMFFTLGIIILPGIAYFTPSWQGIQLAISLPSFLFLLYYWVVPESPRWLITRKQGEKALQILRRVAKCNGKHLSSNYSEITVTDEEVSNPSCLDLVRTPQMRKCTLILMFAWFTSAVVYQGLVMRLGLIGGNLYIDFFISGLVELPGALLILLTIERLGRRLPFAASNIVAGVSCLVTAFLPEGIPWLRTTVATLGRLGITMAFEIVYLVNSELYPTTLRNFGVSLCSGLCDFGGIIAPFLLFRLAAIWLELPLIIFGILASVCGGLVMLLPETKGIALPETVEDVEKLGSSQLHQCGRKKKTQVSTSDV
Experimental: Cell cultures. Bone marrow (BM) cells were prepared as reported (Schneider, et al. J. Immunol. 139:3710-717) and adjusted to a final concentration of 2.5×10^6 per ml in culture medium (MEM) supplemented with 10% horse serum. Various doses (10^−5-10^−7 M) of Clobenpropit or Tritoqualine were added shortly before the addition of IL-3 (1 ng/ml), followed by a 24-h incubation at 37° C., 5% CO2.
Cytokine assays, measurement of histamine production, and uptake. IL-6 and IL-4 production was measured in cell supernatants recovered after a 24-h incubation. Histamine was quantified by an automated continuous flow spectrofluorometric technique (Schneider, et al. J. Immunol. 139:3710-717). For binding experiments, 10^6 total BM cells were plated in round-bottomed 96-well polypropylene plates (Costar). Unless stated otherwise, the cells were incubated (37° C., 5% CO2) for 3 h with 3 μCi/ml of [^3H]histamine dihydrochloride (2.5×10^−7 M; 12 Ci/mmol) in a final volume of 100 μl. Competition assays were performed as previously described (Corbel, S., et al. 1995. Blood. 86:531-539; Corbel, S., et al. 1995, FEBS Lett. 404:289-293). Each experiment was performed in triplicate, and histamine binding was calculated from total cpm after subtraction of nonspecific binding to filters.

[5] = system: Mouse medullary cells C57B1/6 expressing H4R; test: Proliferation of Colony Forming Cells (CFC) in semi-solid media; assay type: cell-based; conditions: 7 days; for inhibitory activity of cell proliferation (CFC): Example 20
Experimental: Using the assay described in Example 15, above, the effect of TRQ or CB on cells expressing H4R was tested. Mouse medullary cells C57B1/6 expressing H4R (50,000 cells/Petri dish) were incubated in a semi-solid media with haematopoietic growth factors (IL-3: 10 ng/ml) for 7 days with TRQ or CB.
Using the assay described in Example 15, above, the effect of TRQ or CB on cells expressing H4R was tested. Mouse medullary cells C57B1/6 expressing H4R (50,000 cells/Petri dish) were incubated in a semi-solid media with haematopoietic growth factors (IL-3: 10 ng/ml) for 7 days with a TRQ (racemic mixture of RR and SS isomers at 1 μM and 10 μM concentration); TRQ isomer E1 (10 μM concentration); TRQ isomer E2 (10 μM concentration) and CB (10 μM concentration).

[6] = 10 μM, compared to control (GF only)

T1 sequence (Q60857 whole entry): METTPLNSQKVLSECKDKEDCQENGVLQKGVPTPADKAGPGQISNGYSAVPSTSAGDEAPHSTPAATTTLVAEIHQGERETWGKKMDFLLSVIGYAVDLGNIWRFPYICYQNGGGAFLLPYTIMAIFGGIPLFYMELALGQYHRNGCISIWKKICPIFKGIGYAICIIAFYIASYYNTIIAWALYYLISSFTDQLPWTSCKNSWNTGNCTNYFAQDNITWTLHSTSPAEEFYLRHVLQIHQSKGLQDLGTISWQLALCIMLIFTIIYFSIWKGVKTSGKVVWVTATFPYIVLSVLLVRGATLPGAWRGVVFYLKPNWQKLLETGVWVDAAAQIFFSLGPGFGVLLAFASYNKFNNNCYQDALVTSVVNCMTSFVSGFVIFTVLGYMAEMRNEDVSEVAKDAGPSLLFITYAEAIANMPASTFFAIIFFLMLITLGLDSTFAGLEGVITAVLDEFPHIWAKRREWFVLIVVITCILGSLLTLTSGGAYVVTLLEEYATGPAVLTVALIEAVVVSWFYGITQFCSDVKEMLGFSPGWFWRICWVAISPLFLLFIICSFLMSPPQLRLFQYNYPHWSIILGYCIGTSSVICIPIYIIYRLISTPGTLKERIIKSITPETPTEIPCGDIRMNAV

SMILES | H4R agonist activity (percentage of cells at the G0/G1 phase) (c-kit+ BM cells) | inhibition of serotonin uptake ([1]; 1 μM) | inhibition of serotonin uptake ([1]; 10 μM) | inhibition of G0/G1 phase [2] | percentage of cells at the G0/G1 phase / inhibitory activity of cell proliferation ([3]; 1 μM) | percentage of cells at the G0/G1 phase / inhibitory activity of cell proliferation [3, 6] | inhibition of histamine uptake ([4]; 1 μM) | inhibition of histamine uptake ([4]; 10 μM) | inhibitory activity of cell proliferation (CFC) ([5]; 10 μM) | effect on biogenic monoamine uptake by SERT ([1]; listed as TRQ) | percentage of cells at the G0/G1 phase / inhibitory activity of cell proliferation ([3]; 1 μM, listed as TRQ) | percentage of cells at the G0/G1 phase / inhibitory activity of cell proliferation ([3]; 1 μM, listed as racemic TRQ) | effect on biogenic monoamine uptake by OCT-3 ([4]; listed as TRQ) | inhibition of proliferation of CFC ([5]; Example 16, 10 μM, IL-3 10 ng/ml, listed as TRQ) | inhibitory activity of cell proliferation (CFC) ([5]; 1 μM)
CCOc1c(N)c2c(c(OCC)c1OCC)[C@H]([C@H]1c3c(cc4c(c3OC)OCO4)CCN1C)OC2=O [E1] | H4R agonist activity similar to the one of CB | negligible | greatly reduced | approximately 50% | higher percentage of cells at the G0/G1 phase than the racemic TRQ | slightly more potent than isomer E2 | negligible | greatly reduced | slightly more potent than isomer E2 | – | – | – | – | – | –
CCOc1c(N)c2c(c(OCC)c1OCC)C(C1c3c(cc4c(c3OC)OCO4)CCN1C)OC2=O (racemic) [Tritoqualine, 7-Amino-4,5,6-triethoxy-3-(5,6,7,8-tetrahydro-4-methoxy-6-methyl-1,3-dioxolo[4,5-g]isoquinolin-5-yl) phthalide] | – | – | – | approximately 50% | – | also increased the percentage of cells at the G0/G1 phase | – | – | – | do not significantly alter; also recorded: does not affect | also increased the percentage of cells at the G0/G1 phase | less inhibitory activity in comparison to 10 μM CB | do not significantly alter; also recorded: does not affect | more potent inhibitor of cell proliferation than the Clobenpropit | less inhibitory activity in comparison to 10 μM CB
CCOc1c(N)c2c(c(OCC)c1OCC)[C@@H]([C@@H]1c3c(cc4c(c3OC)OCO4)CCN1C)OC2=O [E2] | H4R agonist activity similar to the one of CB | negligible | greatly reduced | 57% | higher percentage of cells at the G0/G1 phase than the racemic TRQ | exerted inhibitory activity of cell proliferation | negligible | greatly reduced | exerted inhibitory activity of cell proliferation | – | – | – | – | – | –
